According to patent US11661403B2, “Oxadiazole compounds” (Vivace Therapeutics, Inc., priority 2018, dated 2023):

Each compound was assayed on 8XTBD luciferase reporter (YAP) in HEK293T cells (assay: YAP Reporter Assay). Conditions: Homo sapiens, HEK-293T; HEK293T cells stably transfected with 8XTBD luciferase reporter and pRLTK; 24-hr incubation; top concentration 3 μM; read-out: Firefly Luciferase IC50.
Assay type: cell-based
In the case of `N#CC1(Cc2nnc(-c3ccccc3Nc3ccc(C(F)(F)F)cc3)o2)CC1` [Compound 88, 1-((5-(2-((4-(trifluoromethyl)phenyl)amino)phenyl)-1,3,4-oxadiazol-2-yl)methyl)cyclopropane-1-carbonitrile], the IC50 is reported as 100 to 1000 nM.
`OCc1nnc(-c2ccccc2Nc2ccc(C(F)(F)F)cc2)o1` [Compound 5, (5-(2-((4-(trifluoromethyl)phenyl)amino)phenyl)-1,3,4-oxadiazol-2-yl)methanol] showed an IC50 of under 100 nM.
Compound `FC(F)(F)c1ccc(Nc2ccccc2-c2nnc(OC/C=C/Br)o2)cc1` [Compound 82, (E)-2-(5-((3-bromoallyl)oxy)-1,3,4-oxadiazol-2-yl)-N-(4-(trifluoromethyl)phenyl)aniline] has an IC50 of 100 to 1000 nM.
Compound `COC1(c2nnc(-c3ccccc3Nc3ccc(C(F)(F)F)cc3)o2)CC1` [Compound 67, 2-(5-(1-methoxycyclopropyl)-1,3,4-oxadiazol-2-yl)-N-(4-(trifluoromethyl)phenyl) aniline] has an IC50 of under 100 nM.
In the case of `CS(=O)(=O)N(CCO)c1nnc(-c2ccccc2Nc2ccc(C(F)(F)F)cc2)o1` [Compound 32, N-(2-hydroxyethyl)-N-(5-(2-((4-(trifluoromethyl)phenyl)amino)phenyl)-1,3,4-oxadiazol-2-yl)methanesulfonamide], the IC50 is reported as 100 to 1000 nM.
Compound `N#CCc1nnc(-c2ccccc2Nc2ccc(C(F)(F)F)cc2)o1` [Compound 137, 2-(5-(2-((4-(trifluoromethyl)phenyl)amino)phenyl)-1,3,4-oxadiazol-2-yl)acetonitrile] has an IC50 of 100 to 1000 nM.
`O=C(NC1CC1)c1nnc(-c2ccccc2Nc2ccc(C(F)(F)F)cc2)o1` [Compound 195, N-cyclopropyl-5-(2-((4-(trifluoromethyl)phenyl)amino)phenyl)-1,3,4-oxadiazole-2-carboxamide] showed an IC50 of 100 to 1000 nM.
`C#CCNC(=O)c1nnc(-c2ccccc2Nc2ccc(C(F)(F)F)cc2)o1` [Compound 116, N-(prop-2-yn-1-yl)-5-(2-((4-(trifluoromethyl)phenyl)amino)phenyl)-1,3,4-oxadiazole-2-carboxamide] was tested, and the IC50 was under 100 nM.
`CC(O)(CC#N)c1nnc(-c2ccccc2Nc2ccc(C(F)(F)F)cc2)o1` (stereo not drawn) [Compound 130, 3-hydroxy-3-(5-(2-((4-(trifluoromethyl)phenyl)amino)phenyl)-1,3,4-oxadiazol-2-yl)butanenitrile] showed an IC50 of under 100 nM.
`FC(F)(F)c1ccc(Nc2ccccc2-c2nnc(C3CO3)o2)cc1` (stereo not drawn) [Compound 122, 2-(5-(oxiran-2-yl)-1,3,4-oxadiazol-2-yl)-N-(4-(trifluoromethyl)phenyl)aniline] gave an IC50 of under 100 nM.
Work on `CC1(c2nnc(-c3ccccc3Nc3ccc(C(F)(F)F)cc3)o2)CO1` (stereo not drawn) [Compound 132, 2-(5-(2-methyloxiran-2-yl)-1,3,4-oxadiazol-2-yl)-N-(4-(trifluoromethyl)phenyl)aniline] yielded an IC50 of under 100 nM.
`NC1(c2nnc(-c3ccccc3Nc3ccc(C(F)(F)F)cc3)o2)CC1` [Compound 58, 2-(5-(1-aminocyclopropyl)-1,3,4-oxadiazol-2-yl)-N-(4-(trifluoromethyl)phenyl) aniline] was tested, and the IC50 was 100 to 1000 nM.
In the case of `CNCCc1nnc(-c2ccccc2Nc2ccc(C(F)(F)F)cc2)o1` [Compound 172, 2-(5-(2-(methylamino)ethyl)-1,3,4-oxadiazol-2-yl)-N-(4-(trifluoromethyl)phenyl)aniline], the IC50 is reported as 1000 to 5000 nM.
`CC(O)(CCO)c1nnc(-c2ccccc2Nc2ccc(C(F)(F)F)cc2)o1` (stereo not drawn) [Compound 179, 3-(5-(2-((4-(trifluoromethyl)phenyl)amino)phenyl)-1,3,4-oxadiazol-2-yl)butane-1,3-diol] was tested, and the IC50 was under 100 nM.
In the case of `Cc1oncc1-c1nnc(-c2ccccc2Nc2ccc(C(F)(F)F)cc2)o1` [Compound 40, 2-(5-(5-methylisoxazol-4-yl)-1,3,4-oxadiazol-2-yl)-N-(4-(trifluoromethyl)phenyl) aniline], the IC50 is reported as 100 to 1000 nM.
Compound `N#CC1(c2nnc(-c3ccccc3Nc3ccc(C(F)(F)F)cc3)o2)CC1` [Compound 184, 1-(5-(2-((4-(trifluoromethyl)phenyl)amino)phenyl)-1,3,4-oxadiazol-2-yl)cyclopropane-1-carbonitrile] has an IC50 of under 100 nM.
In the case of `CNC(=O)C1(c2nnc(-c3ccccc3Nc3ccc(C(F)(F)F)cc3)o2)CC1` [Compound 186, N-methyl-1-(5-(2-((4-(trifluoromethyl)phenyl)amino)phenyl)-1,3,4-oxadiazol-2-yl)cyclopropane-1-carboxamide], the IC50 is reported as 100 to 1000 nM.
`CN(C#N)CC1(c2nnc(-c3ccccc3Nc3ccc(C(F)(F)F)cc3)o2)CC1` [Compound 140, N-methyl-N-((1-(5-(2-((4-(trifluoromethyl)phenyl)amino)phenyl)-1,3,4-oxadiazol-2-yl)cyclopropyl)methyl)cyanamide] gave an IC50 of under 100 nM.
With `CCNCc1nnc(-c2ccccc2Nc2ccc(C(F)(F)F)cc2)o1` [Compound 100, 2-(5-((ethylamino)methyl)-1,3,4-oxadiazol-2-yl)-N-(4-(trifluoromethyl)phenyl)aniline] the IC50 was 100 to 1000 nM.
`CCN(C#N)CCc1nnc(-c2ccccc2Nc2ccc(C(F)(F)F)cc2)o1` [Compound 96, N-ethyl-N-(2-(5-(2-((4-(trifluoromethyl)phenyl)amino)phenyl)-1,3,4-oxadiazol-2-yl)ethyl)cyanamide] was tested, and the IC50 was under 100 nM.
Work on `CC(Cc1nnc(-c2ccccc2Nc2ccc(C(F)(F)F)cc2)o1)N(C)C#N` (stereo not drawn) [Compound 149, N-methyl-N-(1-(5-(2-((4-(trifluoromethyl)phenyl)amino)phenyl)-1,3,4-oxadiazol-2-yl)propan-2-yl)cyanamide] yielded an IC50 of under 100 nM.
With `C=C(C)c1nnc(-c2ccccc2Nc2ccc(C(F)(F)F)cc2)o1` [Compound 133, 2-(5-(prop-1-en-2-yl)-1,3,4-oxadiazol-2-yl)-N-(4-(trifluoromethyl)phenyl)aniline] the IC50 was 100 to 1000 nM.
In the case of `CC(C)(C(N)=O)c1nnc(-c2ccccc2Nc2ccc(C(F)(F)F)cc2)o1` [Compound 162, 2-methyl-2-(5-(2-((4-(trifluoromethyl)phenyl)amino)phenyl)-1,3,4-oxadiazol-2-yl)propanamide], the IC50 is reported as under 100 nM.
For `CC(C)(O)c1nnc(-c2ccccc2Nc2ccc(C(F)(F)F)cc2)o1` [Compound 42, 2-(5-(2-((4-(trifluoromethyl)phenyl)amino)phenyl)-1,3,4-oxadiazol-2-yl)propan-2-ol], the IC50 was under 100 nM.
`FC(F)(F)c1ccc(Nc2ccccc2-c2nnc(-c3cnco3)o2)cc1` [Compound 37, 2-(5-(oxazol-5-yl)-1,3,4-oxadiazol-2-yl)-N-(4-(trifluoromethyl)phenyl)aniline] was tested, and the IC50 was 100 to 1000 nM.
With `C=CC(=O)NCc1nnc(-c2ccccc2Nc2ccc(C(F)(F)F)cc2)o1` [Compound 108, N-((5-(2-((4-(trifluoromethyl)phenyl)amino)phenyl)-1,3,4-oxadiazol-2-yl)methyl)acrylamide] the IC50 was under 100 nM.
`CNCC(C)(C)c1nnc(-c2ccccc2Nc2ccc(C(F)(F)F)cc2)o1` [Compound 144, 2-(5-(2-methyl-1-(methylamino)propan-2-yl)-1,3,4-oxadiazol-2-yl)-N-(4-(trifluoromethyl)phenyl)aniline] was tested, and the IC50 was 100 to 1000 nM.
`Cc1ccc(S(=O)(=O)N2C(=O)OCC2c2nnc(-c3ccccc3Nc3ccc(C(F)(F)F)cc3)o2)cc1` (stereo not drawn) [Compound 16, 3-tosyl-4-(5-(2-((4-(trifluoromethyl)phenyl)amino)phenyl)-1,3,4-oxadiazol-2-yl)oxazolidin-2-one] was tested, and the IC50 was 100 to 1000 nM.
With `NCc1nnc(-c2ccccc2Nc2ccc(C(F)(F)F)cc2)o1` [Compound 28, 2-[5-(aminomethyl)-1,3,4-oxadiazol-2-yl]-N-[4-(trifluoromethyl)phenyl]aniline] the IC50 was 100 to 1000 nM.
`COc1nnc(-c2ccccc2Nc2ccc(C(F)(F)F)cc2)o1` [Compound 73, 2-(5-methoxy-1,3,4-oxadiazol-2-yl)-N-(4-(trifluoromethyl)phenyl)aniline] was tested, and the IC50 was under 100 nM.
With `CC(=O)OC(CO)c1nnc(-c2ccccc2Nc2ccc(C(F)(F)F)cc2)o1` (stereo not drawn) [Compound 202, 2-hydroxy-1-(5-(2-((4-(trifluoromethyl)phenyl)amino)phenyl)-1,3,4-oxadiazol-2-yl)ethyl acetate] the IC50 was under 100 nM.
`NC1(Cc2nnc(-c3ccccc3Nc3ccc(C(F)(F)F)cc3)o2)CC1` [Compound 136, 2-(5-((1-aminocyclopropyl)methyl)-1,3,4-oxadiazol-2-yl)-N-(4-(trifluoromethyl)phenyl)aniline] gave an IC50 of 100 to 1000 nM.
For `NC(=O)CNc1nnc(-c2ccccc2Nc2ccc(C(F)(F)F)cc2)o1` [Compound 24, 2-((5-(2-((4-(trifluoromethyl)phenyl)amino)phenyl)-1,3,4-oxadiazol-2-yl)amino)acetamide], the IC50 was 100 to 1000 nM.
`C#CC(O)Cc1nnc(-c2ccccc2Nc2ccc(C(F)(F)F)cc2)o1` (stereo not drawn) [Compound 120, 1-(5-(2-((4-(trifluoromethyl)phenyl)amino)phenyl)-1,3,4-oxadiazol-2-yl)but-3-yn-2-ol] gave an IC50 of under 100 nM.
With `CON(C)C(=O)C(C)(C)c1nnc(-c2ccccc2Nc2ccc(C(F)(F)F)cc2)o1` [Compound 87, N-methoxy-N,2-dimethyl-2-(5-(2-((4-(trifluoromethyl)phenyl)amino)phenyl)-1,3,4-oxadiazol-2-yl)propanamide] the IC50 was under 100 nM.
In the case of `CNc1nnc(-c2ccccc2Nc2ccc(C(F)(F)F)cc2)o1` [Compound 12, N-methyl-5-(2-((4-(trifluoromethyl)phenyl)amino)phenyl)-1,3,4-oxadiazol-2-amine], the IC50 is reported as 100 to 1000 nM.

Same assay, conditions: Homo sapiens, HEK-293T; […]; 24-hr incubation; top concentration 3 μM; read-out: Firefly Luciferase IC50
`CC(C)NC(=O)c1nnc(-c2ccccc2Nc2ccc(C(F)(F)F)cc2)o1` [Compound 196, N-isopropyl-5-(2-((4-(trifluoromethyl)phenyl)amino)phenyl)-1,3,4-oxadiazole-2-carboxamide] was tested, and the IC50 was 100 to 1000 nM.
`CS(=O)(=O)C1(c2nnc(-c3ccccc3Nc3ccc(C(F)(F)F)cc3)o2)CC1` [Compound 66, 2-[5-(1-methylsulfonylcyclopropyl)-1,3,4-oxadiazol-2-yl]-N-[4-(trifluoromethyl)phenyl]aniline] gave an IC50 of under 100 nM.
`CC#CCOc1nnc(-c2ccccc2Nc2ccc(C(F)(F)F)cc2)o1` [Compound 70, 2-(5-(but-2-yn-1-yloxy)-1,3,4-oxadiazol-2-yl)-N-(4-(trifluoromethyl)phenyl)aniline] showed an IC50 of 1000 to 5000 nM.
